The IC50 is the point on the concentration scale where inhibition reaches its midpoint. A low value points to higher potency.

For one assay, the system named is MIP1α. Description: LPS-stimulated MIP1α production in sputum macrophages from COPD. Format: cell-based. The note with it: Homo sapiens, Macrophage. As to the method:
Patients with COPD were inhaled with a nebulised solution of 3% (w/v) hypertonic saline using an ultrasonic nebuliser (Devilbiss, Carthage, Mo.) with tidal breathing for 5 min. This procedure was repeated a maximum of three times until enough sputum was obtained. The sputum samples were homogenized and mixed vigorously using a vortex mixer in 0.02% v/v dithiothreitol (DTT) solution. The samples were re-suspended in PBS (40 mL) followed by centrifugation at 1500 rpm at 4° C. for 10 min to obtain sputum cell pellets. The pellets were washed twice with PBS (40 mL). The sputum cells were then re-suspended in macrophage serum-free medium (macrophage-SFM, Life technologies, Paisley, UK; to achieve 2×10^6/well in a 24 well plate) containing 20 U/mL penicillin, 0.02 mg/mL streptomycin and 5 μg/mL amphotericin B and seeded on high bound 96-well plate, followed by incubation for 2 hr at 37° C. and at 5% CO2 to allow the macrophages to attach to the bottom of the plate. The cells on the plate were washed with fresh macrophage-SFM (200 μL/well) to remove neutrophils and other contaminated cells. The adherent cells (mainly sputum macrophages) on the plate were used for further analysis. Sputum induction and isolation were conducted in Quintiles Drug Research Unit at Guys Hospital and ethics approval and written informed consent was obtained by Quintiles.
Where appropriate, 1 μL of a solution containing either the test compound or reference article at the stated concentrations or alternatively 1 μL of DMSO as the vehicle control was added to each well (200 μL in media) and the cells were incubated for 2 hr. […] After washing with 200 uL wash buffer per well, the beads were resuspended in sheath fluid (150 μL) and analyzed immediately. The level of each analyte in the supernatant was calculated using Xcel Fit software with a 4 or 5-parameter equation using each standard curve. The inhibitions of each cytokine production were calculated at each concentration by comparison with vehicle control. The IC50 values were determined from concentration-inhibition curves using XL-Fit (idbs, Guildford, UK)

The test system of the next assay is IL-8. The experiment in a line: TNFα-stimulated IL-8 production in primary bronchial epithelial cells from COPD. Particulars: Homo sapiens, Epithelial cell. Format: cell-based. On the procedure: Primary airway epithelial cells obtained from patients with COPD were purchased from Asterand (Royston, UK), and maintained in bronchial epithelial cell growth media that was prepared by mixing together LHC8 (lnvitrogen) (500 mL), with LHC9 (Invitrogen) (500 mL) and 3 μL of retinoic acid solution (5 mg/mL in neat DMSO. The media was removed by aspiration and fresh BEGM (200 μL) was added to each well. Where appropriate, 1 μL of a solution of the test compound at the state concentrations or 1 μL of DMSO as the vehicle control was added and the cells were incubated for 2 hr. The cells were stimulated with TNFα (50 μL; final concentration 50 ng/mL) and then incubated for 4 hr at 37° C. and 5% CO2. The supernatant was then collected and kept at −20° C.
The levels of IL-6 and IL-8 were determined by ELISA using R&D Systems' Human IL-6 and IL-8 Duoset® Elisa Kits. The inhibition of IL-6 and IL-8 production was calculated at each concentration by comparison with vehicle control.

Consider `Cc1ccc(-n2nc(C(C)(C)C)cc2NC(=O)Nc2ccc(Oc3ccnc(Nc4ccccc4)n3)c3ccccc23)cc1` [Example 1, 1-(3-(tert-Butyl)-1-(p-tolyl)-1H-pyrazol-5-yl)-3-(4-(2-(phenylamino)pyrimidin-4-yloxy)naphthalen-1-yl)urea], for which the IC50 in the assay with MIP1α (COPD patients, LPS) worked out at 7.5 nM; in the assay on IL-8 (COPD patients, TNFα stimulated), 0.85 nM. For the same molecule, the Emax at 0.1 µg/mL was 89% with MIP1α (read-out: MIP1α E max, sputum macrophage) and 100% in the assay with IL-8 (read-out: IL-8 E max, bronchial epithelial cell).

The values above are taken from patent publication US10238658B2, “1-pyrazolyl-3-(4-((2-anilinopyrimidin-4-yl) oxy) napththalen-1-yl) ureas as p38 MAP kinase inhibitors” (Respivert Limited, priority 2011, dated 2019).
